Results: PubChem BioAssay (NCI)
Values joined by “and” are separate entries in the source; they are usually repeats but may differ in a detail not shown here. Equal entries are not always repeated.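 Results reflect a 48-hour exposure of cells in 96-well plates to compound at five concentrations. GI50 marks 50% less growth. The concentration for full growth arrest is given as TGI.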

Key:
Assay in all cases: DTP human tumour cell line panel, 48 h
[1] = test system: OVCAR-8 ovarian
[2] = test system: NCI-H522 lung
[3] = test system: CCRF-CEM leukemia
[4] = test system: IGROV1 ovarian
[5] = test system: DU-145 prostate
[6] = test system: HOP-92 NSCLC
[7] = test system: T-47D breast
[8] = test system: COLO 205 colon
[9] = test system: LOX IMVI melanoma
[10] = test system: U251 CNS

SMILES | TGI [1] | TGI [2] | TGI [3] | TGI [4] | TGI [5] [µM] | TGI [6] | TGI [7] | TGI [8] [µM] | GI50 [6] [µM] | TGI [9] | GI50 [8] [µM] | TGI [10] [µM]
Nc1ncc(Cc2nn3c(COc4ccc(Cl)cc4)nnc3s2)s1 | > 100 µM | > 100 µM | > 100 µM | > 100 µM | > 100 | > 100 µM | > 100 µM | > 100 |  |  |  | 
Nc1ncnc2c(C3OC(CO)C(O)C3O)c[nH]c12 (stereo not given) | 0.0845 µM and 0.771 µM | 0.0601 µM and 0.0389 µM | 0.0988 µM and < 0.0135 µM | 0.0637 µM and 0.0661 µM | 0.113 | 0.00836 µM and 0.0664 µM | 0.0758 µM and 0.0275 µM |  | 0.00215 | 0.0274 µM and < 0.0155 µM | 0.0193 | 
COc1cccc2c1C(=O)c1c(O)c3c(c(O)c1C2=O)C[C@](O)(C(=O)CO)CC3OC1CC(N)C(OC2CCCCO2)C(C)O1 (stereo not given in full) | 14 µM | 2.62 µM |  | 11.4 µM |  | 1.02 µM |  | 2.61 |  | 1.66 µM |  | 0.899
CC(C)=CCC/C(C)=C/CCC1(C)C2COC(=O)C21 (stereo not given) |  | > 100 µM | 80.8 µM | > 100 µM | > 100 | 87 µM |  | > 100 |  | 89 µM |  | > 100
Cc1cn(C2CC(O)C(Cn3cc(Cn4nc(Br)c(=O)[nH]c4=O)nn3)O2)c(=O)[nH]c1=O (stereo not given) | > 100 µM |  | 14.3 µM |  | > 100 |  | > 100 µM | > 100 |  |  |  | > 100
COc1cccc(C2c3cc4c(cc3OC(N3CCOCC3)C2C)OCO4)c1 (stereo not given) | > 100 µM | 75.3 µM |  | > 100 µM | > 100 | 85.3 µM | > 100 µM | 29.8 |  | 18.1 µM |  | 
Cc1cccc(-c2cc(=O)c3c(C)ccnc3[nH]2)c1 | > 100 µM | 0.798 µM | > 100 µM | > 100 µM | > 100 |  | > 100 µM | 2.68 |  | > 100 µM |  | > 100
COC(=O)C1CC(C=O)=C(SC)N1 (stereo not given) | > 50 µM | > 50 µM |  | > 50 µM | > 50 | > 50 µM |  | > 50 |  |  |  | > 50
C=C(Cl)C(=C)CCC(Cl)C(C)(C)Cl (stereo not given) |  | > 100 µM | > 100 µM | > 100 µM | > 100 | > 100 µM |  | > 100 |  | > 100 µM |  | > 100
Cc1cccc(/C=N/NC(=S)NC(C)(C)C)n1 | > 100 µM | > 100 µM | > 100 µM | > 100 µM | > 100 |  | > 100 µM | > 100 |  | > 100 µM |  | > 100
CCCNC(=O)Cn1c(-c2ccccc2)cc2ccccc21 | > 100 µM | 60.1 µM | > 100 µM | > 100 µM | > 100 |  | > 100 µM | > 100 |  | > 100 µM |  | > 100
CC[N+]1(C)CCC(O)(/C=C/c2ccc(Cl)c(Cl)c2)C(C(=O)/C=C/c2ccc(Cl)c(Cl)c2)C1 (stereo not given) | 8.97 µM | 3.34 µM |  | 7.8 µM | 6.87 | 7.82 µM | 4.87 µM | 10.2 |  | 2.84 µM |  | 3.71
O=c1oc2ccccc2cc1-c1nc2ccccc2s1 | 20.4 µM | 21.5 µM |  | 18.6 µM | 43.7 | 22.3 µM |  |  |  | 24.2 µM |  | 21.4
